{"source": "patent US5324516A", "about": "“Galenic composition for decreasing blood alcohol concentration” (priority 1991, dated 1994)", "test": "Test 3: effect of each of primary ingredients on blood ethanol concentration in rats", "assay_type": "in vivo, rat", "settings": "pueraria flower 0.28, phaseoli 0.39, pinelliae 0.09, fructose 1.2 g/kg", "description": "The 50 g of pueraria flower was finely chopped and extracted with 11 of water at 100° C. for 2.5 hours. The extract was filtered and lyophilized in a freeze dryer. The 10.7 g of the powder was obtained.\nThe phaseoli radiati semen and pinelliae tuber were extracted and lyophilized in the same manner as described for puerariae flos. The 14.6 g and 7 g of powder were obtained from phaseoli radiati semen and pinelliae tuber, respectively.\nThe powder of pueraria flower, phaseoli radiati semen, pinelliae tuber, and fructose were dissolved in an adquate volume of water and administered to rats fasted 18 to 24 hours at a dose of 0.28 g, 0.39 g, 0.09 g and 1.2 g/kg body weight, respectively. The rats were treated in the same manner as Test 2.", "data": [{"molecule": "O=C(CO)[C@@H](O)[C@H](O)[C@H](O)CO", "note": "[Fructose]", "values": [{"measurement": "Alcohol concentration in blood", "setting": "1 hr after 3 g/kg ethanol", "value": 1.984, "unit": "g/L"}, {"measurement": "Alcohol concentration in blood", "setting": "2 hr after 3 g/kg ethanol", "value": 1.654, "unit": "g/L"}, {"measurement": "Alcohol concentration in blood", "setting": "4 hr after 3 g/kg ethanol", "value": 0.724, "unit": "g/L"}, {"measurement": "Alcohol concentration in blood", "setting": "6 hr after 3 g/kg ethanol", "value": 0.325, "unit": "g/L"}]}]}
